Laboratory results as given in PMC2241828, “Amyloglucosidase enzymatic reactivity inside lipid vesicles” (Journal of Biological Engineering, 2007).

Molecular target: T1, amyloglucosidase (AMG), EC 3.2.1.3 (Aspergillus niger, UniProt P69328)
T1 construct: gene GLAA; commercial enzyme solution (Sigma A-3042), diluted with water
Assay: initial rates plus fit of glucose-time curves (HPLC, starch-iodine) to Michaelis-Menten model with product inhibition
Format: biochemical
Settings: free enzyme; soluble starch as substrate; pH 4.5, 55 °C; competitive product inhibition (assumed model); read-out: Ki (mg mL^-1) (converted)

T1 sequence (P69328 25-640): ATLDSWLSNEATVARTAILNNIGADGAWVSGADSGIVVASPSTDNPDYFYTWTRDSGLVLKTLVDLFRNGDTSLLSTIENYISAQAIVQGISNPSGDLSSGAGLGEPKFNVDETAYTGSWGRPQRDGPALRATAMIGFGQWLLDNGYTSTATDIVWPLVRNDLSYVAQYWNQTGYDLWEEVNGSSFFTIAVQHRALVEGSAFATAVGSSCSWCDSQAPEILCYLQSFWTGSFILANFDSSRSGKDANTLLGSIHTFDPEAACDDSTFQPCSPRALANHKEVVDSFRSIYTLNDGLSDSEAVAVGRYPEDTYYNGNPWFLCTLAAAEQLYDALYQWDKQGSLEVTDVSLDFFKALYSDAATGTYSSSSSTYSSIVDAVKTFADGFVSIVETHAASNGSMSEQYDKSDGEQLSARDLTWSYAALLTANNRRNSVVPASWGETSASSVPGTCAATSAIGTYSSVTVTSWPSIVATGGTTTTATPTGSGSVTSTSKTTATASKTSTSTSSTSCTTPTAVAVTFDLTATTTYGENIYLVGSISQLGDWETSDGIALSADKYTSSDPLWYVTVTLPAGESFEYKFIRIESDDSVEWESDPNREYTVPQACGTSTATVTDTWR

OC[C@H]1OC(O)[C@H](O)[C@@H](O)[C@@H]1O (stereo partly shown) [glucose]
Ki: 555 µM
